What all share (assay type): cell-based
The subject of experiment [1] is A549 (lung adenocarcinoma). The experiment is described as follows: Antiproliferative activity, CCK-8 cell viability. To be noted: Homo sapiens, 72 h, read-out: Inhibition of Cancerous Cells, A549; for inhibition at 3.3 µM: compound concentration of 3.3 μM; for inhibition at 10 µM: compound concentration of 10 μM; for inhibition at 30 µM: compound concentration of 30 μM.

The next experiment concerns SW480 (colon cancer). The experiment is described as follows: Antiproliferative activity, CCK-8 cell viability. To be noted: Homo sapiens, 72 h, read-out: Inhibition of Cancerous Cells, SW480; for inhibition at 3.3 µM: compound concentration of 3.3 μM; for inhibition at 10 µM: compound concentration of 10 μM; for inhibition at 30 µM: compound concentration of 30 μM. Put shortly: (§1)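 Viability relative to DMSO controls came from CCK-8 absorbance at 450 nm after 72 h exposure at 37°C. Compound concentrations were 3.3, 10 or 30 μM, in DMEM plus 10% FBS. Results are categorised by inhibition level: at least 50%, 30 to under 50%, or under 30%.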

The next experiment has as its system HeLa (cervical cancer). In words: Antiproliferative activity, CCK-8 cell viability. Conditions: Homo sapiens, 72 h, read-out: Inhibition of Cancerous Cells, HELA; for inhibition at 3.3 µM: compound concentration of 3.3 μM; for inhibition at 10 µM: compound concentration of 10 μM; for inhibition at 30 µM: compound concentration of 30 μM.
A further experiment concerns HepG2 (liver cancer). The experiment is described as follows: Antiproliferative activity, CCK-8 cell viability. Conditions: Homo sapiens, 72 h, read-out: Inhibition of Cancerous Cells, HepG2; for inhibition at 3.3 µM: compound concentration of 3.3 μM; for inhibition at 10 µM: compound concentration of 10 μM; for inhibition at 30 µM: compound concentration of 30 μM. The method in brief: as §1

In experiment [2] the test system is A431 (epidermoid carcinoma). In words: Antiproliferative activity, CCK-8 cell viability. Conditions: Homo sapiens, A-431, 72 h, read-out: Inhibition of Cancerous Cells, A431; for inhibition at 3.3 µM: compound concentration of 3.3 μM; for inhibition at 10 µM: compound concentration of 10 μM; for inhibition at 30 µM: compound concentration of 30 μM. Put shortly: as §1

Experiment [3] deals with B16F10 (malignant melanoma). In words: Antiproliferative activity, CCK-8 cell viability. To be noted: Mus musculus, B16-F10, 72 h, read-out: Inhibition of Cancerous Cells, B16F10; for inhibition at 3.3 µM: compound concentration of 3.3 μM; for inhibition at 10 µM: compound concentration of 10 μM; for inhibition at 30 µM: compound concentration of 30 μM. Put shortly:
as §1

The subject of experiment [4] is MDA-MB-231 (breast cancer). The experiment is described as follows: Antiproliferative activity, CCK-8 cell viability. To be noted: Homo sapiens, 72 h, read-out: Inhibition of Cancerous Cells, MDA-MB-231; for inhibition at 3.3 µM: compound concentration of 3.3 μM; for inhibition at 10 µM: compound concentration of 10 μM; for inhibition at 30 µM: compound concentration of 30 μM. The method in brief: as §1

Experiment [5] deals with alpha-smooth muscle actin (α-SMA). The experiment is described as follows: Inhibition of TGF-β induced expression of alpha-smooth muscle actin in CFSC cells (western blot). To be noted: compound at 10 μM, TGF-β (10 ng/mL), 24 hours. Put shortly:
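Read-out is percent decrease in α-SMA western-blot band intensity, β-actin also probed, relative to TGF-β-only cells. CFSC cells were co-treated for 24 h at 37 °C with 10 ng/mL TGF-β and 10 μM compound in serum-free DMEM.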

In patent US20240116845A1, “INDENE COMPOUNDS, PHARMACEUTICAL COMPOSITIONS THEREOF, AND THEIR THERAPEUTIC APPLICATIONS” (NucMito Pharmaceuticals Co., Ltd., priority 2021, published 2024) one finds inhibition data, which are given here for 3 molecules.

The term inhibition denotes the share of the control response that was lost under treatment. With `CC1=C(CC(=O)O)c2cc(F)cc(F)c2/C1=C\c1ccc(Oc2ccc(F)cc2)cc1` [Compound D15, 2-[(1Z)-5,7-Difluoro-2-methyl-1-({4-[4-fluorophenoxy]phenyl}methylidene)-1H-inden-3-yl]acetic acid], the inhibition at 3.3 µM was 30 to 50% in experiment [1]; less than 30% with SW480 (colon cancer); less than 30% in the experiment on HeLa (cervical cancer); no less than 50% in the experiment with HepG2 (liver cancer); less than 30% in experiment [2]; less than 30% in experiment [3]. The inhibition at 3.3 µM in experiment [4] was no less than 50%. The inhibition at 10 µM was no less than 50% in experiment [1]; no less than 50% in the experiment with SW480 (colon cancer); no less than 50% in the experiment on HeLa (cervical cancer); no less than 50% in the experiment with HepG2 (liver cancer); 30 to 50% in experiment [2]; 30 to 50% in experiment [3]. In addition, the results for the inhibition at 10 µM in experiment [4] and in experiment [5] were no less than 50% and no less than 80%, respectively. Moreover, the inhibition at 30 µM (in experiment [1]; in the experiment on SW480 (colon cancer); in the experiment on HeLa (cervical cancer); in the experiment on HepG2 (liver cancer); in experiment [2]; in experiment [3]) was no less than 50% each time. For the same molecule, in experiment [4], the inhibition at 30 µM was no less than 50%.

Turning to `CC1=C(CC(=O)O)c2c(F)cc(F)cc2/C1=C\c1ccc(Oc2ccc(F)cc2)cc1` [Compound D16, 2-[(1Z)-4,6-Difluoro-2-methyl-1-({4-[4-fluorophenoxy]phenyl}methylidene)-1H-inden-3-yl]acetic acid], the inhibition at 3.3 µM in experiment [1] is less than 30%; in the experiment on SW480 (colon cancer), less than 30%; with HeLa (cervical cancer) it was less than 30%; in the experiment with HepG2 (liver cancer) it was 30 to 50%; in experiment [2] it was less than 30%; in experiment [3] it was less than 30%. Besides, the inhibition at 3.3 µM in experiment [4] was no less than 50%. Also, the inhibition at 10 µM (in experiment [1]; in the experiment with SW480 (colon cancer); in the experiment with HeLa (cervical cancer); in the experiment with HepG2 (liver cancer); in experiment [2]; in experiment [3]) was 30 to 50% in each case. Moreover, the inhibition at 10 µM is no less than 50% in experiment [4] and no less than 80% in experiment [5]. Further, the inhibition at 30 µM in experiment [1] was 30 to 50%; in the experiment with SW480 (colon cancer), no less than 50%; in the experiment with HeLa (cervical cancer) it was no less than 50%; in the experiment on HepG2 (liver cancer), no less than 50%; in experiment [2], no less than 50%; in experiment [3] it was no less than 50%. In addition, the inhibition at 30 µM in experiment [4] is no less than 50%.

For `CC1=C(CC(=O)O)c2cc(F)ccc2/C1=C\c1ccccc1Oc1ccccc1` [Compound D19, 2-[(1Z)-5-Fluoro-1-(2-(phenoxy)benzylidene)-2-methyl-1H-inden-3-yl]-acetic acid], the inhibition at 3.3 µM in experiment [1] was 30 to 50%; in the experiment with SW480 (colon cancer), no less than 50%; with HeLa (cervical cancer), 30 to 50%; with HepG2 (liver cancer), no less than 50%; in experiment [2] it was no less than 50%; in experiment [3], less than 30%. In addition, the inhibition at 3.3 µM in experiment [4] was less than 30%. Moreover, the inhibition at 10 µM in experiment [1] is no less than 50%; in the experiment on SW480 (colon cancer), no less than 50%; in the experiment with HeLa (cervical cancer) it was no less than 50%; with HepG2 (liver cancer), no less than 50%; in experiment [2] it was no less than 50%; in experiment [3], 30 to 50%. Moreover, the inhibition at 10 µM in experiment [4] and in experiment [5] was less than 30% in each case. Further, the inhibition at 30 µM (in experiment [1]; with SW480 (colon cancer); in the experiment with HeLa (cervical cancer); in the experiment on HepG2 (liver cancer); in experiment [2]; in experiment [3]) was no less than 50% in each case. Besides, the inhibition at 30 µM in experiment [4] is no less than 50%.
